Source: ChEMBL document CHEMBL1153604, “Inhibition of Pseudomonas aeruginosa quorum sensing by AI-2 analogs” (Bioorg Med Chem Lett, 2009)
The source made the active and inactive calls. The rule behind the calls is not given here.

These molecules were tested on Pseudomonas aeruginosa PAO1 (assay: Inhibition of wild type Pseudomonas aeruginosa PAO1 assessed as reduction in pyocyanin production at 100 uM after 19 hrs […]).
Parameters: scale not given: the % may be the effect or the level left

| Activity [%] | SMILES |
| --- | --- |
| 59 | CCCCC(=O)C(=O)[C@@H](O)CO |
| 53 | CCCCCC(=O)C(=O)[C@@H](O)CO |

These molecules were tested on Pseudomonas aeruginosa (assay: Inhibition of Pseudomonas aeruginosa PAO-JP2-luxCDABE quorm sensing measured every 20 mins in presence of 3-oxo-C12-HSL).

| Activity | SMILES |
| --- | --- |
| Dose-dependent effect | CCCCC(=O)C(=O)[C@@H](O)CO |
| Dose-dependent effect | CCCCCC(=O)C(=O)[C@@H](O)CO |

These molecules were tested against Autoinducer 2-binding periplasmic protein LuxP (Vibrio harveyi) (UniProt P54300) (assay: Agonist activity at Vibrio harveyi MM30 LuxP assessed as inhibition of autoinducer-2-induced quorum sensing).
Sequence of Autoinducer 2-binding periplasmic protein LuxP (Vibrio harveyi) (P54300 whole entry): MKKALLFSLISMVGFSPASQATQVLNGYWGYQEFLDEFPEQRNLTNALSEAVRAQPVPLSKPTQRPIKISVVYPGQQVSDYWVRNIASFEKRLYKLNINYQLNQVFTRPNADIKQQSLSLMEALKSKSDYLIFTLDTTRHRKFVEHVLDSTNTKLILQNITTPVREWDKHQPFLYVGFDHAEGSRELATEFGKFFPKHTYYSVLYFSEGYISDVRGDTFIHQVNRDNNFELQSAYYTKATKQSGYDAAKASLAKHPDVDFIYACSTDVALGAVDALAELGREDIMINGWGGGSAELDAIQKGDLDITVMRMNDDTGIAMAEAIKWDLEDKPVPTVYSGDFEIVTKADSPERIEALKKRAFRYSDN
Format: functional

| SMILES | Activity |
| --- | --- |
| CCCCC(=O)C(=O)[C@@H](O)CO | inactive |
| CC(=O)C(=O)[C@@H](O)CO | inactive |
| CCC(=O)C(=O)[C@@H](O)CO | Active |
| CCCC(=O)C(=O)[C@@H](O)CO | inactive |

Other lines, results leading:

| Activity | SMILES |
| --- | --- |
| inactive | CCCCCCC(=O)C(=O)[C@@H](O)CO |
| inactive | CCCCCCCC(=O)C(=O)[C@@H](O)CO |
| inactive | CCCCCC(=O)C(=O)[C@@H](O)CO |

The molecules below were run against Autoinducer 2-binding periplasmic protein LuxP (Vibrio harveyi, UniProt P54300) (assay: Agonist activity at Vibrio harveyi BB170 LuxP assessed as inhibition of autoinducer-2-induced quorum sensing after 5 hrs by luminescence assay).
Sequence of Autoinducer 2-binding periplasmic protein LuxP (P54300 whole entry): as above
Format: functional

| SMILES | EC50 [µM] |
| --- | --- |
| CCCCC(=O)C(=O)[C@@H](O)CO | 1.01 |
| CC(=O)C(=O)[C@@H](O)CO | 0.15 |
| CCC(=O)C(=O)[C@@H](O)CO | 0.58 |
| CCCC(=O)C(=O)[C@@H](O)CO | 0.75 |

Further lines, results first:

| EC50 [µM] | SMILES |
| --- | --- |
| 1.52 | CCCCCCC(=O)C(=O)[C@@H](O)CO |
| 1.81 | CCCCCCCC(=O)C(=O)[C@@H](O)CO |
| 1.35 | CCCCCC(=O)C(=O)[C@@H](O)CO |

These molecules were tested on Pseudomonas aeruginosa PAO1 (assay: Inhibition of wild type Pseudomonas aeruginosa PAO1-luxCDABE quorm sensing measured after 20 mins by luminescence assay).

| inhibition [%] | SMILES |
| --- | --- |
| 40 | CCCCC(=O)C(=O)[C@@H](O)CO |
| 40 | CCCCCC(=O)C(=O)[C@@H](O)CO |

These molecules were tested on Pseudomonas aeruginosa (assay: Inhibition of wild type Pseudomonas aeruginosa PAO1-luxCDABE growth at >200 uM by luminescence assay).
Format: functional, organism-based

| SMILES | inhibition |
| --- | --- |
| CCCCC(=O)C(=O)[C@@H](O)CO | inactive |
| CCCCCC(=O)C(=O)[C@@H](O)CO | inactive |

The molecules below were run on Pseudomonas aeruginosa (assay: Inhibition of wild type Pseudomonas aeruginosa PAO1 growth at 100 uM).
Format: functional, organism-based

| SMILES | inhibition |
| --- | --- |
| CC(=O)C(=O)[C@@H](O)CO | inactive |
| CCC(=O)C(=O)[C@@H](O)CO | inactive |
| CCCC(=O)C(=O)[C@@H](O)CO | inactive |
| CCCCCCC(=O)C(=O)[C@@H](O)CO | inactive |
| CCCCCCCC(=O)C(=O)[C@@H](O)CO | inactive |

What follows are molecules tested on Pseudomonas aeruginosa (assay: Inhibition of Pseudomonas aeruginosa PAO-JP2-luxCDABE quorm sensing at 200 uM measured every 20 min by luminescence assay in presence of 3-oxo-C12-HSL).

| inhibition [%] | SMILES |
| --- | --- |
| 40 | CCCCC(=O)C(=O)[C@@H](O)CO |
| 40 | CCCCCC(=O)C(=O)[C@@H](O)CO |
